# Laboratory results reported in PubChem BioAssay AID2060893 (Molecular Pharmacology Branch, DTP, NCI, 2025).
# System: K86415-001-R-J1-PDC complex spheroids, viability
# Test: Anticancer human tumor K86415-001-R-J1-PDC patient-derived lung adenocarcinoma cell line growth inhibition [RAS]
# Conditions: for IC50: curve of first compound; for viability, T/C: stronger effect = lower value
# How it was run: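 Multi-cell-type spheroids: tumor cells plus HUVEC endothelial cells and mesenchymal stem cells. RAS-pathway inhibitors were combined with targeted agents, each dosed in half-log steps down from clinical Cmax, or from 10 microM when Cmax was unknown.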
# 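Further: spheroids exposed to agents for seven days before readout.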
smiles,measurement,setting,value
CC(=O)OC12COC1CC(O)C1(C)C(=O)C(O)C3=C(C)C(OC(=O)C(O)C(NC(=O)OC(C)(C)C)c4ccccc4)CC(O)(C(OC(=O)c4ccccc4)C21)C3(C)C (configuration not stated) + CCn1c(-c2cc(N3CCN(C)CC3)cnc2C(C)OC)c2c3cc(ccc31)-c1csc(n1)CC(NC(=O)C1CC1C)C(=O)N1CCCC(N1)C(=O)OCC(C)(C)C2,IC50,second compound 0.000949 µM,< 31.6 nM
same,IC50,second compound 0.003 µM,< 31.6 nM
same,IC50,second compound 0.00949 µM,< 31.6 nM
same,IC50,second compound 0.03 µM,< 31.6 nM
same,IC50,second compound 0.0949 µM,< 31.6 nM
same,IC50,second compound 0.3 µM,< 31.6 nM
same,"viability, T/C","second compound 0.000949 µM, first compound 0.0316 µM",26.9%
same,"viability, T/C","second compound 0.000949 µM, first compound 0.1 µM",21.5%
same,"viability, T/C","second compound 0.000949 µM, first compound 0.316 µM",17.2%
same,"viability, T/C","second compound 0.000949 µM, first compound 1 µM",22.7%
same,"viability, T/C","second compound 0.000949 µM, first compound 3.16 µM",25.3%
same,"viability, T/C","second compound 0.000949 µM, first compound 10 µM",19%
same,"viability, T/C","second compound 0.003 µM, first compound 0.0316 µM",19.2%
same,"viability, T/C","second compound 0.003 µM, first compound 0.1 µM",15.6%
same,"viability, T/C","second compound 0.003 µM, first compound 0.316 µM",15.1%
same,"viability, T/C","second compound 0.003 µM, first compound 1 µM",16.7%
same,"viability, T/C","second compound 0.003 µM, first compound 3.16 µM",15%
same,"viability, T/C","second compound 0.003 µM, first compound 10 µM",12.8%
same,"viability, T/C","second compound 0.00949 µM, first compound 0.0316 µM",9.53%
same,"viability, T/C","second compound 0.00949 µM, first compound 0.1 µM",7.3%
same,"viability, T/C","second compound 0.00949 µM, first compound 0.316 µM",7.91%
same,"viability, T/C","second compound 0.00949 µM, first compound 1 µM",7.79%
same,"viability, T/C","second compound 0.00949 µM, first compound 3.16 µM",5.97%
same,"viability, T/C","second compound 0.00949 µM, first compound 10 µM",6.51%
same,"viability, T/C","second compound 0.03 µM, first compound 0.0316 µM",5.56%
same,"viability, T/C","second compound 0.03 µM, first compound 0.1 µM",5.63%
same,"viability, T/C","second compound 0.03 µM, first compound 0.316 µM",4.4%
same,"viability, T/C","second compound 0.03 µM, first compound 1 µM",3.98%
same,"viability, T/C","second compound 0.03 µM, first compound 3.16 µM",2.48%
same,"viability, T/C","second compound 0.03 µM, first compound 10 µM",2.81%
same,"viability, T/C","second compound 0.0949 µM, first compound 0.0316 µM",3.04%
same,"viability, T/C","second compound 0.0949 µM, first compound 0.1 µM",2.69%
same,"viability, T/C","second compound 0.0949 µM, first compound 0.316 µM",2.48%
same,"viability, T/C","second compound 0.0949 µM, first compound 1 µM",1.97%
same,"viability, T/C","second compound 0.0949 µM, first compound 3.16 µM",2.21%
same,"viability, T/C","second compound 0.0949 µM, first compound 10 µM",2.4%
same,"viability, T/C","second compound 0.3 µM, first compound 0.0316 µM",2.05%
same,"viability, T/C","second compound 0.3 µM, first compound 0.1 µM",2.39%
same,"viability, T/C","second compound 0.3 µM, first compound 0.316 µM",1.97%
same,"viability, T/C","second compound 0.3 µM, first compound 1 µM",2.03%
same,"viability, T/C","second compound 0.3 µM, first compound 3.16 µM",2.06%
same,"viability, T/C","second compound 0.3 µM, first compound 10 µM",1.73%
